Results reported in patent US8071367B2, “Selecting, culturing and creating lineage committed hematopoietic stem cells” (Commonwealth Scientific and Industrial Research Organisation, priority 2005, dated 2011).
Where no end group is shown, it is not given here.

System: CB CD34+CD38− HSC
Test: In vitro proliferation of sorted cord blood CD34+CD38− HSC with 6 growth factor stimulation, cells counted after 6 days
Type: cell-based, human
Details: 300 per well, Cellgro supplemented with 6 factors, after 6 d, versus 6 factors alone
Experimental: Human cord blood cells were sorted by FACS and plated into cell culture wells (300 cells/well) in the presence of Cellgro supplemented with 6 growth factors G-CSF, […], FL-T3 ligand, (FLT3-L), MGDF (all 100 ng/ml), IL-6 and IL-3 (both 10 ng/ml). In addition, α9β1 antibody (Chemicon), thrombin-cleaved bovine Opn (R & D Systems, Minneapolis, Minn., USA), or Opn inhibiting peptide [SVVYGLR-NH2] (Auspep) (SEQ ID NO:1) were added. All cells were cultured at 37° C. in 5% O2, 10% CO2 and 85% N2. Cells were grown for 6 days prior to counting.
Thrombin-cleaved Opn was prepared by incubating 24 μg bovine Opn in 20 mM Tris-HCl (pH 7.6), 80 mM NaCl, 2 mM CaCl2 and 0.1 units of thrombin (CSL, Parkville, Australia), for 10 min at 37° C.

SVVYGLR-NH2 [osteopontin peptide] was tested, and the cell proliferation was “significant inhibition of cell proliferation”.
